The values that follow come from ChEMBL document CHEMBL3112539, “Synthesis of neoglycosphingolipid from methoxyamino-functionalized ceramide” (Bioorg Med Chem Lett, 2014).

Active and inactive are the calls of the source. The calls are words filed in the database; no cut-off is given here.

The target in assay [1] is T1, Endoglycoceramidase II (Rhodococcus sp) (UniProt A0ACD6B832). Briefly: Inhibition of Rhodococcus sp. recombinant endoglycoceramidase 2 hydrolytic activity assessed as lactose released from (2S,3S,4R)-2-[N-(octadecanoyl)amino]-1-{O-[beta-galactosylpyranosyl-(1->4)-beta-glucopyranosyl]}octadecane-1,3,4-triol at 0.27 mM after 15 mins by modified Park and Johnson method.

The target of assay [2] is T1, Endoglycoceramidase II (Rhodococcus sp). Briefly: Inhibition of Rhodococcus sp. recombinant endoglycoceramidase 2 hydrolytic activity assessed as lactose released from O-LacCer at 0.74 mM after 15 mins by modified Park and Johnson method.
For assay [3] the target is unchanged. Description: Competitive inhibition of Rhodococcus sp. recombinant endoglycoceramidase 2 hydrolytic activity assessed as lactose released from (2S,3S,4R)-2-[N-(octadecanoyl)amino]-1-{O-[beta-galactosylpyranosyl-(1->4)-beta-glucopyranosyl]}octadecane-1,3,4-triol at 0.27 mM after 15 mins by modified Park and Johnson method.

T1 sequence (A0ACD6B832 as listed by the source): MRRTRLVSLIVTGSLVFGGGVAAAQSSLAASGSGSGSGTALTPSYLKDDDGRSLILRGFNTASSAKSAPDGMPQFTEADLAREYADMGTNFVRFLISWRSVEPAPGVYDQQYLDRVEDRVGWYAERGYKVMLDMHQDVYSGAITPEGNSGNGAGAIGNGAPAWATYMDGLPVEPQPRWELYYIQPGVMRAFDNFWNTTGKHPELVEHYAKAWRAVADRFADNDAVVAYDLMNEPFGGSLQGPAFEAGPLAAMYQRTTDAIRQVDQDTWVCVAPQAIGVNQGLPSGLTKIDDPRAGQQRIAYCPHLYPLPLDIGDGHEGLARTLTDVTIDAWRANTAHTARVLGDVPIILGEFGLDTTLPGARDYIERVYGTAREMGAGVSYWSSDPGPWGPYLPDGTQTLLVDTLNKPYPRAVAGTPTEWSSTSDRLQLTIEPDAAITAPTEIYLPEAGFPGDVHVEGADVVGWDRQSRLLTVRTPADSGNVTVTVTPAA

In the case of `CCCCCCCCCCCCCCCCCC(=O)N[C@@H](CN(OC)[C@@H]1O[C@H](CO)[C@@H](O[C@@H]2O[C@H](CO)[C@H](O)[C@H](O)[C@H]2O)[C@H](O)[C@H]1O)[C@H](O)[C@H](O)CCCCCCCCCCCCCC`, the inhibition result in assay [1] and in assay [3] was “Active” throughout. Moreover, the inhibition entry in assay [2] is “inactive”.
